The target in this experiment is MAB AI-18. In words: Competitive RIA: inhibition of MAB AI-18 binding to solid-phase Apo AI/HDL by competitor antigen or peptide. Also noted: species or system mouse. To be noted: for Immunoreactivity (concentration of peptide competitor required to achieve a B/Bo value of 0.5): competitive RIA, MAB AI-18 ascites 1:1.25×10^5, solid-phase Apo AI/HDL; for immunoreactivity values (in words): higher value represents a lower affinity; for ability of the peptide to immunologically mimic a native conserved epitope of Apo AI: FIG. 5, proline 99 deleted or substituted by glycine; for expression of the epitope recognized by MAB AI-18 after NaOH treatment: NaOH treated Apo AI/HDL, 18 hours at about 20 degrees C; for B/Bo: background-adjusted. How it is done: One hundred ul of PBS (0.15M NaCl, 0.01M NaPO4, pH 7.2) containing 10 ug/ml Apo AI/HDL were admixed to the wells of microtiter plates. The plates were maintained for 1 hour at 20 degrees C. on a rotating platform to allow the Apo AI/HDL to adhere to the wells and form solid supports. After aspirating excess liquid from the wells, 200 ul of block solution (3% BSA, 3% NGS in PBS) was admixed to each well, and the wells were maintained for 30 minutes at 20 degrees C. on a rotating platform. Subsequently, the blocking solution was removed by aspiration and the wells were washed 3 times with SPRIA buffer.
In control wells either competing antigen or antibody was replaced by PBS containing 3% BSA.
The immunoreaction admixtures were maintained about 16 hours at 4 degrees C. on a rotating platform to permit formation of solid-phase immunoreaction products. […] The labeling immunoreaction admixtures so formed were maintained for 4 hours at 4 degrees C. on a rotating platform.
[…] of serial 3 fold dilutions of each sample prepared in Table 3 were admixed as competitor in the RIA described in this Example.
Fifty microliters of the stock of 2 fold serial dilutions of the stock were used as competitor in the RIA described in this Example.

Consider 16 substances from patent US5055396A, “Diagnostic methods and systems for quantifying APO AI” (Scripps Clinic and Research Foundation, priority 1987, dated 1991).

Take LDDFQKKWQEE [AI101-111]: the “Immunoreactivity (concentration of peptide competitor required to achieve a B/Bo value of 0.5)” value is > 10,000 ug protein/ml and the “immunoreactivity values (in words)” value is given as “high immunoreactivity values”.
As to AKVQYLDDFQ [AI95-105 (-P)], the “ability of the peptide to immunologically mimic a native conserved epitope of Apo AI” value is on record as “substantially decreases the ability of the peptide to immunologically mimic a native conserved epitope” and the “Immunoreactivity (concentration of peptide competitor required to achieve a B/Bo value of 0.5)” value is on record as > 10,000 ug protein/ml.
“E: NaOH treated Apo AI/HDL, 15 ul 1N NaOH, pH 11.33”: the “expression of the epitope recognized by MAB AI-18 after NaOH treatment” value (“expression of the epitope recognized” for short) is “decrease in expression of the epitope”. Also, where the note is “competitor dilution 1:3”, the “CPM of 125I-labeled solid phase immunoreaction product” value (shortened to “CPM”) was 553 CPM and the B/Bo is given as 0.046. Also, for the setting “competitor dilution 1:9”, the “CPM” value stood at 881 CPM and the B/Bo is on record as 0.088. Further, under “competitor dilution 1:27”, the “CPM” value is given as 1543 CPM and the B/Bo worked out at 0.173. In addition, under “competitor dilution 1:81”, the “CPM” value is given as 2283 CPM and the B/Bo came out at 0.268. Also, under “competitor dilution 1:243”, the “CPM” value is recorded as 3338 CPM and the B/Bo worked out at 0.404. Further, for the setting “competitor dilution 1:729”, the “CPM” value stood at 4918 CPM and the B/Bo was found to be 0.607. Further, where the note is “competitor dilution Neat”, the “CPM” value amounted to 263 CPM and the B/Bo turned out to be 0.009.
Turning to LEEVKAKVQPYLDDFQKKWQEE [AI90-111], the “Immunoreactivity (concentration of peptide competitor required to achieve a B/Bo value of 0.5)” value was found to be 9 ug protein/ml.
Turning to AKVQPYLDDFQ [AI95-105], the “Immunoreactivity (concentration of peptide competitor required to achieve a B/Bo value of 0.5)” value stood at 45 ug protein/ml.
As for VKAKVQPYL [AI93-101], the “Immunoreactivity (concentration of peptide competitor required to achieve a B/Bo value of 0.5)” value is listed as > 10,000 ug protein/ml and the “immunoreactivity values (in words)” value is on record as “high immunoreactivity values”.
For AKVQGYLDDFQ [AI95-105 (G/P)], the “ability of the peptide to immunologically mimic a native conserved epitope of Apo AI” value is reported as “substantially decreases the ability of the peptide to immunologically mimic a native conserved epitope” and the “Immunoreactivity (concentration of peptide competitor required to achieve a B/Bo value of 0.5)” value is > 10,000 ug protein/ml.
Regarding “F: NaOH treated Apo AI/HDL, 50 ul 1N NaOH, pH 11.86”, the “expression of the epitope recognized” value is given as “decrease in expression of the epitope”. For the setting “competitor dilution 1:3”, the “CPM” value was determined as 185 CPM and the B/Bo entry was “-.001”. Further, under “competitor dilution 1:9”, the “CPM” value is recorded as 281 CPM and the B/Bo is 0.011. For the same substance, where the note is “competitor dilution 1:27”, the “CPM” value is recorded as 342 CPM and the B/Bo stood at 0.019. Under “competitor dilution 1:81”, the “CPM” value is reported as 516 CPM and the B/Bo amounted to 0.041. In addition, where the note is “competitor dilution 1:243”, the “CPM” value is 744 CPM and the B/Bo was determined as 0.071. For the same substance, where the note is “competitor dilution 1:729”, the “CPM” value is listed as 1295 CPM and the B/Bo is listed as 0.141. Where the note is “competitor dilution Neat”, the “CPM” value amounted to 222 CPM and the B/Bo stood at 0.004.
Take SKDLEEVKAKVQPYL [AI87-101]: the “Immunoreactivity (concentration of peptide competitor required to achieve a B/Bo value of 0.5)” value is listed as 8,400 ug protein/ml and the “immunoreactivity values (in words)” value is on record as “high immunoreactivity values”.
As for QKKWQEEMELYR [AI105-116], the “Immunoreactivity (concentration of peptide competitor required to achieve a B/Bo value of 0.5)” value is > 10,000 ug protein/ml and the “immunoreactivity values (in words)” value is given as “high immunoreactivity values”.
Regarding “Apo AI/HDL: Apo AI when it is present on HDL particles [reference compound]”, the “slope of logit transformed competition data” value (competitor HDL or fresh plasma, FIG. 2) is listed as -2.03. In addition, the “CPM” value (competitor dilution 1:3) came to 2348 CPM; the “CPM” value (competitor dilution 1:9) was determined as 3778 CPM; the “CPM” value (competitor dilution 1:27) was found to be 5057 CPM; the “CPM” value (competitor dilution 1:81) is given as 5868 CPM; the “CPM” value (competitor dilution 1:243) was 6380 CPM; the “CPM” value (competitor dilution 1:729) was 6679 CPM. In addition, for the setting “competitor dilution Neat”, the “CPM” value is 1152 CPM. Besides, the B/Bo (competitor dilution 1:3) is given as 0.277; the B/Bo (competitor dilution 1:9) stood at 0.460; the B/Bo (competitor dilution 1:27) was 0.624; the B/Bo (competitor dilution 1:81) was 0.729; the B/Bo (competitor dilution 1:243) was 0.794; the B/Bo (competitor dilution 1:729) was 0.833. Also, the B/Bo (competitor dilution Neat) is listed as 0.123.
In the case of “Sample A: Apo AI/HDL, no NaOH treatment control, pH 6.26 [reference compound]”, the “CPM” value (competitor dilution 1:3) amounted to 2542 CPM; the “CPM” value (competitor dilution 1:9) came out at 4799 CPM; the “CPM” value (competitor dilution 1:27) amounted to 5786 CPM; the “CPM” value (competitor dilution 1:81) stood at 6745 CPM; the “CPM” value (competitor dilution 1:243) was determined as 7270 CPM; the “CPM” value (competitor dilution 1:729) was 7255 CPM. The “CPM” value (competitor dilution Neat) was found to be 965 CPM. In addition, the B/Bo by setting is: (competitor dilution 1:3) 0.301; (competitor dilution 1:9) 0.527; (competitor dilution 1:27) 0.718; (competitor dilution 1:81) 0.841; (competitor dilution 1:243) 0.090; (competitor dilution 1:729) 0.907. The substance also yielded a B/Bo (competitor dilution Neat) of 0.099.
Take “B: NaOH treated Apo AI/HDL, 5 ul 0.01N NaOH, pH 6.34”: the “expression of the epitope recognized” value is “stable to NaOH treatments”. In addition, where the note is “competitor dilution 1:3”, the “CPM” value came to 2852 CPM and the B/Bo turned out to be 0.341. Further, for the setting “competitor dilution 1:9”, the “CPM” value was determined as 4399 CPM and the B/Bo is recorded as 0.540. Besides, where the note is “competitor dilution 1:27”, the “CPM” value is 6195 CPM and the B/Bo was determined as 0.771. Besides, where the note is “competitor dilution 1:81”, the “CPM” value was 6988 CPM and the B/Bo came out at 0.872. In addition, where the note is “competitor dilution 1:243”, the “CPM” value stood at 7483 CPM and the B/Bo is listed as 0.936. Under “competitor dilution 1:729”, the “CPM” value is given as 7406 CPM and the B/Bo amounted to 0.926. Also, for the setting “competitor dilution Neat”, the “CPM” value was 1110 CPM and the B/Bo was 0.118.
In the case of “KVQPYL (UniProt P02647 120-125, looked up, fragment) [AI96-101]”, the “Immunoreactivity (concentration of peptide competitor required to achieve a B/Bo value of 0.5)” value is listed as > 10,000 ug protein/ml.
Regarding “G: NaOH treated Apo AI/HDL, 250 ul 1N NaOH, pH 12.85”, the “expression of the epitope recognized” value was “decrease in expression of the epitope”. Also, for the setting “competitor dilution 1:3”, the “CPM” value amounted to 305 CPM and the B/Bo is reported as 0.016. For the same substance, where the note is “competitor dilution 1:9”, the “CPM” value is listed as 339 CPM and the B/Bo was 0.019. Further, under “competitor dilution 1:27”, the “CPM” value came to 497 CPM and the B/Bo turned out to be 0.039. For the same substance, where the note is “competitor dilution 1:81”, the “CPM” value amounted to 771 CPM and the B/Bo was 0.074. Further, under “competitor dilution 1:243”, the “CPM” value came to 1157 CPM and the B/Bo is listed as 0.124. Also, for the setting “competitor dilution 1:729”, the “CPM” value is listed as 1891 CPM and the B/Bo is reported as 0.218. For the setting “competitor dilution Neat”, the “CPM” value came to 195 CPM and the B/Bo came to 0.000.
With “C: NaOH treated Apo AI/HDL, 50 ul 0.01N NaOH, pH 7.04”, the “expression of the epitope recognized” value is recorded as “stable to NaOH treatments”. For the setting “competitor dilution 1:3”, the “CPM” value amounted to 2479 CPM and the B/Bo was 0.293. Also, under “competitor dilution 1:9”, the “CPM” value was determined as 4502 CPM and the B/Bo stood at 0.553. Where the note is “competitor dilution 1:27”, the “CPM” value came out at 6005 CPM and the B/Bo came to 0.746. Besides, where the note is “competitor dilution 1:81”, the “CPM” value worked out at 6618 CPM and the B/Bo is 0.825. Where the note is “competitor dilution 1:243”, the “CPM” value was determined as 7277 CPM and the B/Bo was 0.909. Further, under “competitor dilution 1:729”, the “CPM” value came to 7485 CPM and the B/Bo is 0.936. Also, for the setting “competitor dilution Neat”, the “CPM” value is 1070 CPM and the B/Bo is listed as 0.112.
